According to patent US20100267561A1, “HERBICIDAL PYRIDAZINONE DERIVATIVES” (priority 2007, published 2010):
Like-named read-outs stand apart in the source and are kept apart here.

Experiments:
Assay in all cases: Test B pre-/postemergence plant response
Type in all cases: in vivo
[1] = tested on: Italian ryegrass (Lolium multiflorum); details: for pest or weed control at 31 g/ha / pest or weed control at 62 g/ha: Lolium multiflorum, read-out: Plant response rating, Ryegrass, Italian; for pest or weed control at 31 g/ha: 31 g ai/ha; for pest or weed control at 62 g/ha: 62 g ai/ha, 100 complete control
Procedure, shortened: (§1)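 Preemergence and postemergence (plants 2-18 cm, 1- to 4-leaf stage) applications used test chemicals in a non-phytotoxic solvent with surfactant. Plants were held in a greenhouse 13 to 15 days, then rated visually against controls on a 0-100 scale (0 no effect, 100 complete control).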

[2] = tested on: bermudagrass (Cynodon dactylon); details: for pest or weed control at 31 g/ha: 31 g ai/ha; for pest or weed control at 62 g/ha: 62 g ai/ha, 100 complete control
Procedure, shortened: as §1

[3] = tested on: catchweed bedstraw (Galium aparine); details: Preemergence
Procedure, shortened: as §1

[4] = tested on: giant foxtail (Setaria faberii); details: for pest or weed control at 31 g/ha: 31 g ai/ha; for pest or weed control at 62 g/ha: 62 g ai/ha, 100 complete control
Procedure, shortened: as §1

[5] = tested on: goosegrass (Eleusine indica); details: for pest or weed control at 31 g/ha / pest or weed control at 62 g/ha: Eleusine indica, read-out: Plant response rating, Goosegrass; for pest or weed control at 31 g/ha: 31 g ai/ha; for pest or weed control at 62 g/ha: 62 g ai/ha, 100 complete control
Procedure, shortened: as §1

[6] = tested on: johnsongrass (Sorghum halepense); details: for pest or weed control at 31 g/ha / pest or weed control at 62 g/ha: Sorghum halepense, read-out: Plant response rating, Johnsongrass; for pest or weed control at 31 g/ha: 31 g ai/ha; for pest or weed control at 62 g/ha: 62 g ai/ha, 100 complete control
Procedure, shortened: as §1

[7] = tested on: lambsquarters (Chenopodium album); details: for pest or weed control at 31 g/ha / pest or weed control at 62 g/ha: Chenopodium album, read-out: Plant response rating, Lambsquarters; for pest or weed control at 31 g/ha: 31 g ai/ha; for pest or weed control at 62 g/ha: 62 g ai/ha, 100 complete control
Procedure, shortened: as §1

[8] = tested on: large crabgrass (Digitaria sanguinalis); details: for pest or weed control at 31 g/ha: 31 g ai/ha; for pest or weed control at 62 g/ha: 62 g ai/ha, 100 complete control
Procedure, shortened: as §1

[9] = tested on: morningglory (Ipomoea coccinea); details: for pest or weed control at 31 g/ha / pest or weed control at 62 g/ha: Ipomoea, read-out: Plant response rating, Morningglory; for pest or weed control at 31 g/ha: 31 g ai/ha; for pest or weed control at 62 g/ha: 62 g ai/ha, 100 complete control
Procedure, shortened: as §1

[10] = tested on: pigweed (Amaranthus retroflexus); details: for pest or weed control at 31 g/ha / pest or weed control at 62 g/ha: Amaranthus retroflexus, read-out: Plant response rating, Pigweed; for pest or weed control at 31 g/ha: 31 g ai/ha; for pest or weed control at 62 g/ha: 62 g ai/ha, 100 complete control
Procedure, shortened: as §1

soybean (Glycine max) = details: for plant injury at 31 g/ha / plant injury at 62 g/ha: Glycine max, read-out: Plant response rating, Soybean; for plant injury at 31 g/ha: 31 g ai/ha; for plant injury at 62 g/ha: 62 g ai/ha, 100 complete control
Procedure, shortened: as §1

[11] = tested on: velvetleaf (Abutilon theophrasti); details: for pest or weed control at 31 g/ha / pest or weed control at 62 g/ha: Abutilon theophrasti, read-out: Plant response rating, Velvetleaf; for pest or weed control at 31 g/ha: 31 g ai/ha; for pest or weed control at 62 g/ha: 62 g ai/ha, 100 complete control
Procedure, shortened: as §1

[12] = 8 g ai/ha, postemergence, 0-100 scale
[13] = 16 g ai/ha, postemergence, 0-100 scale
[14] = post-emergence, Postemergence, scale 0 to 100
[15] = post-emergence, Postemergence, scale 0 to 100, 0 no effect
[16] = pre-emergence, Preemergence, scale 0 to 100 (0 no effect, 100 complete control)
[17] = pre-emergence, Preemergence, 0 to 100 scale, 0 no effect
[18] = Preemergence, 8 g ai/ha, scale 0 to 100 (0 no effect, 100 complete control)
[19] = Preemergence, 16 g ai/ha, scale 0 to 100

With `Cc1nn(C)c(=O)c(-c2nc(-c3ccc(Cl)cc3)sc2C)c1O` [Compound 79, 4-[2-(4-chlorophenyl)-5-methyl-4-thiazolyl]-5-hydroxy-2,6-dimethyl-3(2H)-pyridazinone] the “Ryegrass, Italian plant response rating” value [1, 12] was 55, the “Ryegrass, Italian plant response rating” value [1, 13] was 70 and the pest or weed control at 31 g/ha [1, 14] was 80%. For the same compound, the pest or weed control at 62 g/ha [1, 15] was 90%, the pest or weed control at 31 g/ha [1, 16] was 100% and the pest or weed control at 62 g/ha [1, 17] was 100%. For the same compound, the “Ryegrass, Italian plant response rating” value [1, 18] was 0, the “Ryegrass, Italian plant response rating” value [1, 19] was 90 and the “Bermudagrass plant response rating” value [2, 12] was 70. It also gave a pest or weed control at 16 g/ha ([2]; Cynodon dactylon, post-emergence, Postemergence, 16 g ai/ha, scale 0 to 100, read-out: Plant response rating, Bermudagrass) of 80%, a pest or weed control at 31 g/ha ([2]; Cynodon dactylon, post-emergence, Postemergence, scale 0 to 100, read-out: Plant response rating, Bermudagrass) of 100% and a pest or weed control at 62 g/ha ([2]; Cynodon dactylon, post-emergence, Postemergence, scale 0 to 100, 0 no effect, read-out: Plant response rating, Bermudagrass) of 100%. The pest or weed control at 31 g/ha ([2]; Cynodon dactylon, pre-emergence, Preemergence, scale 0 to 100 (0 no effect, 100 complete control), read-out: Plant response rating, Bermudagrass) was 100%, the pest or weed control at 62 g/ha ([2]; Cynodon dactylon, pre-emergence, Preemergence, 0 to 100 scale, 0 no effect, read-out: Plant response rating, Bermudagrass) was 100% and the “Bermudagrass plant response rating” value [2, 18] was 90. For the same compound, the “Bermudagrass plant response rating” value ([2]; Preemergence, 16 g ai/ha, scale 0 to 100 (0 no effect, 100 complete control)) was 100, the pest or weed control at 31 g/ha ([3]; Galium aparine, pre-emergence, 31 g ai/ha, scale 0 to 100 (0 no effect, 100 complete control), read-out: Plant response rating, Galium) was 0% and the pest or weed control at 62 g/ha ([3]; Galium aparine, pre-emergence, 62 g ai/ha, 0 to 100 scale, 0 no effect, 100 complete control, read-out: Plant response rating, Galium) was 0%. For the same compound, the “Galium plant response rating” value ([3]; 8 g ai/ha, scale 0 to 100 (0 no effect, 100 complete control)) was 0, the “Galium plant response rating” value ([3]; 16 g ai/ha, scale 0 to 100) was 0 and the “Foxtail, Giant plant response rating” value [4, 12] was 75. The “Foxtail, Giant plant response rating” value [4, 18] was 55, the “Foxtail, Giant plant response rating” value [4, 19] was 100 and the pest or weed control at 16 g/ha ([4]; Setaria faberi, post-emergence, Postemergence, 16 g ai/ha, scale 0 to 100, read-out: Plant response rating, Foxtail, Giant) was 80%. The pest or weed control at 31 g/ha ([4]; Setaria faberi, post-emergence, Postemergence, scale 0 to 100, read-out: Plant response rating, Foxtail, Giant) was 85%, the pest or weed control at 62 g/ha ([4]; Setaria faberi, post-emergence, Postemergence, scale 0 to 100, 0 no effect, read-out: Plant response rating, Foxtail, Giant) was 90% and the pest or weed control at 31 g/ha ([4]; Setaria faberi, pre-emergence, Preemergence, scale 0 to 100 (0 no effect, 100 complete control), read-out: Plant response rating, Foxtail, Giant) was 100%. For the same compound, the pest or weed control at 62 g/ha ([4]; Setaria faberi, pre-emergence, Preemergence, 0 to 100 scale, 0 no effect, read-out: Plant response rating, Foxtail, Giant) was 100%, the “Goosegrass plant response rating” value [5, 12] was 60 and the “Goosegrass plant response rating” value [5, 13] was 80. It also gave a pest or weed control at 31 g/ha [5, 14] of 85%, a pest or weed control at 62 g/ha [5, 15] of 90% and a pest or weed control at 31 g/ha [5, 16] of 100%. For the same compound, the pest or weed control at 62 g/ha [5, 17] was 100%, the “Goosegrass plant response rating” value [5, 18] was 98 and the “Goosegrass plant response rating” value [5, 19] was 100. For the same compound, the “Johnsongrass plant response rating” value [6, 12] was 85, the “Johnsongrass plant response rating” value [6, 13] was 90 and the “Johnsongrass plant response rating” value [6, 18] was 65. For the same compound, the “Johnsongrass plant response rating” value [6, 19] was 85, the pest or weed control at 31 g/ha [6, 14] was 100% and the pest or weed control at 62 g/ha [6, 15] was 100%. The pest or weed control at 31 g/ha [6, 16] was 100%, the pest or weed control at 62 g/ha [6, 17] was 100% and the “Lambsquarters plant response rating” value [7, 12] was 0. For the same compound, the “Lambsquarters plant response rating” value [7, 13] was 0, the pest or weed control at 31 g/ha [7, 14] was 0% and the pest or weed control at 62 g/ha [7, 15] was 0%. For the same compound, the pest or weed control at 31 g/ha [7, 16] was 20%, the pest or weed control at 62 g/ha [7, 17] was 100% and the “Lambsquarters plant response rating” value [7, 18] was 0. For the same compound, the “Lambsquarters plant response rating” value [7, 19] was 0, the “Crabgrass, Large plant response rating” value [8, 12] was 75 and the pest or weed control at 16 g/ha ([8]; Digitaria sanguinalis, post-emergence, Postemergence, 16 g ai/ha, scale 0 to 100, read-out: Plant response rating, Crabgrass, Large) was 80%. The pest or weed control at 31 g/ha ([8]; Digitaria sanguinalis, post-emergence, Postemergence, scale 0 to 100, read-out: Plant response rating, Crabgrass, Large) was 85%, the pest or weed control at 62 g/ha ([8]; Digitaria sanguinalis, post-emergence, Postemergence, scale 0 to 100, 0 no effect, read-out: Plant response rating, Crabgrass, Large) was 98% and the pest or weed control at 31 g/ha ([8]; Digitaria sanguinalis, pre-emergence, Preemergence, scale 0 to 100 (0 no effect, 100 complete control), read-out: Plant response rating, Crabgrass, Large) was 100%. The pest or weed control at 62 g/ha ([8]; Digitaria sanguinalis, pre-emergence, Preemergence, 0 to 100 scale, 0 no effect, read-out: Plant response rating, Crabgrass, Large) was 100%, the “Crabgrass, Large plant response rating” value [8, 18] was 20 and the “Crabgrass, Large plant response rating” value [8, 19] was 100. For the same compound, the “Morningglory plant response rating” value [9, 12] was 0, the “Morningglory plant response rating” value [9, 13] was 0 and the pest or weed control at 31 g/ha [9, 14] was 0%. For the same compound, the pest or weed control at 62 g/ha [9, 15] was 0%, the pest or weed control at 31 g/ha [9, 16] was 0% and the pest or weed control at 62 g/ha [9, 17] was 0%. For the same compound, the “Morningglory plant response rating” value [9, 18] was 0, the “Morningglory plant response rating” value [9, 19] was 0 and the “Pigweed plant response rating” value [10, 12] was 0. For the same compound, the “Pigweed plant response rating” value [10, 13] was 0, the pest or weed control at 31 g/ha [10, 14] was 0% and the pest or weed control at 62 g/ha [10, 15] was 0%. For the same compound, the pest or weed control at 31 g/ha [10, 16] was 0%, the pest or weed control at 62 g/ha [10, 17] was 0% and the “Pigweed plant response rating” value [10, 18] was 0. For the same compound, the “Pigweed plant response rating” value [10, 19] was 0, the “Soybean plant response rating” value (soybean (Glycine max); [12]) was 0 and the “Soybean plant response rating” value (soybean (Glycine max); [13]) was 0. It also gave a plant injury at 31 g/ha (soybean (Glycine max); [14]) of 15%, a plant injury at 62 g/ha (soybean (Glycine max); [15]) of 15% and a plant injury at 31 g/ha (soybean (Glycine max); [16]) of 98%. For the same compound, the plant injury at 62 g/ha (soybean (Glycine max); [17]) was 100%, the “Soybean plant response rating” value (soybean (Glycine max); [18]) was 0 and the “Soybean plant response rating” value (soybean (Glycine max); [19]) was 0. The “Velvetleaf plant response rating” value [11, 12] was 0, the “Velvetleaf plant response rating” value [11, 13] was 0 and the pest or weed control at 31 g/ha [11, 14] was 0%. The pest or weed control at 62 g/ha [11, 15] was 0%, the pest or weed control at 31 g/ha [11, 16] was 0% and the pest or weed control at 62 g/ha [11, 17] was 0%. The “Velvetleaf plant response rating” value [11, 18] was 0 and the “Velvetleaf plant response rating” value [11, 19] was 0.
